Source: patent US10822317B2, “Methods and compositions for wound healing” (QBiotics Limited, priority 2013, dated 2020)

Tests used:
[1] = system: human neonatal fibroblasts; assay: Scratch closure, human neonatal fibroblasts, Method 2; type: cell-based; conditions: 200 ng/mL
Experimental: The ability of early. passage neonatal foreskin fibroblasts (NFF) cultured in RPMI 1640-10% foetal calf serum to migrate across a scratch wound made in a confluent monolayer following treatment with purified compounds or plant extracts was determined using one or more of the following three methods.
Cells were seeded in 6 mm wells (96-well plates) or 16 mm (24-well plates), with 2 to 6 replicate wells/dilution, and treated as in Method 1. Immediately after treatment, the scratch edges were outlined on the underside of the well with a fine point felt pen. After fixing and staining, migration was assessed under the microscope with the aid of a graticule, scoring migration as 0, 25, 50, 75 or 100% (total closure) of the initial width. Accelerated wound closure was considered to be significant if mean quartile of replicates was […] that of untreated controls (p<0.05, t-test). In addition, “wound” areas were created by seeding cells in the presence of 3 mm stainless steel pins (96-well plate), or by inserting flat-edged Teflon rings. These devices were removed after overnight incubation of the NFF cells.

[2] = system: wounds following necrosis and sloughing of spontaneous tumours; assay: Resolution of wounds after sloughing of spontaneous tumours treated by intratumoural injection, canine; type: in vivo; conditions: for Average days from tumour slough to wound closure: Canine
Experimental: necrosis and sloughing of spontaneous tumours that had been treated by intratumoural injection of Compound 1 (30% 1,2 propanediol formulation at either 0.5 or 1.0 mg/mL concentration) in twenty-four companion animals are summarised in Table 17.
Note that all wounds were managed as open wounds and no bandaging, dressings, lotions or concomitant medications were used in any of these cases.

[3] = system: human neonatal fibroblast cells (NFFs); assay: Western blot of signalling molecules in human neonatal fibroblasts; type: cell-based; conditions: 10 or 30 ng/mL
Experimental: The Western Blot method was used to identify effects of Compounds 1 and 42 on proteins relevant to would repair and healing in human neonatal fibroblast cells (NFFs). Two studies were conducted. In the first study; NFFs were treated with either 10 or 30 ng Compound 1/mL for 6 or 24 hours, before harvesting and protein extraction. In the second study NFFs were treated individually with 30 ng/mL concentrations of Compounds 1 and 42 respectively for 6 hours. The resulting lysates from both studies were subjected to western blot analysis, and probing with specific antibodies to key signalling molecules involved in wound repair and healing.
The medium from adherent human neonatal fibroblasts grown in 75 cm^2 plates was removed and the cells were washed twice in ice cold PBS. The attached cells were harvested in 10 mL of ice cold PBS using a cell scraper (Costar, Corning) pelleted by centrifugation for 5 min (1,500 rpm, RTemp), resuspended in 1 mL of ice-cold PBS, and transferred to a 1.5 mL microfuge tube.
The cells were collected by centrifugation (13,200 rpm, RTemp, 2 s), the PBS removed and the pellets stored at −20° C. until required.
The frozen pellets were thawed on ice, and resuspended in a volume of cell lysis buffer 3-4 times the volume of the pellet by pipetting up and down. The cell suspension was sonicated 60 s at 4° C. and centrifuged for 20 min (13,200 rpm, 4° C.) and the […] containing the protein transferred to a fresh 1.5 ml microfuge tube. The protein was stored at −20° C.
Protein samples were diluted 1/10 and 1/20 (v/v) in MilliQ water and 10 μL was plated out in duplicate in. a flat-bottomed 96-well plate (Costar®, Corning). Stock solutions of bovine serum albumin (BSA) were prepared at 100, 200, 400, 600, 1,000, and 1,200 μg/mL and 10 μL/well plated out in duplicate and assayed alongside the samples. […] The raw absorbances were read at A590 nm on a microplate reader (VERSAmax, Molecular Devices) and a standard curve produced using SOFTmax PRO software (Molecular Devices). […]

HaCaT cells = assay: HaCaT scratch repopulation with Mitomycin C (migration study); type: cell-based, human; conditions: with 1 μg/mL Mitomycin C; 0.001 to 1.0 μg/mL; p<0.05

CC=C(C)C(=O)OC1C(C)C2(O)C(C3OC3(CO)C(O)C3(O)C(=O)C(C)=CC32)C2C(C)(C)C12OC(=O)C(C)CC (centres unmarked) [Compound 1, 12-tigloyl-13-(2-methylbutanoyl)-6,7-epoxy-4,5,9,12,13,20-hexahydroxy-1-tigliaen-3-one]
% closure compared to control [1]: 180%
No. of dogs: Tissue deficit at wound site, Minor ([2]; 5 to 10% tissue deficit across the original wound area): 0
No. of dogs: Tissue deficit at wound site, Nil or minimal ([2]; <5% tissue deficit across the original wound area): 15
No. of dogs: Tissue deficit at wound site, Substantial ([2]; >10% tissue deficit across the original wound area): 0
Average days from tumour slough to wound closure ([2]; wound size class 0.25 to 9 cm^2, 7 cases): 24 ± 16 days
Average days from tumour slough to wound closure ([2]; wound size class 9 to 50 cm^2, 5 cases): 40 ± 15 days
Average days from tumour slough to wound closure ([2]; wound size class >50 to 130 cm^2, 3 cases): 62 ± 18 days
No. of dogs: Hair regrowth on wound area, Sparse ([2]; Hair covers <50% of original wound area): 7
No. of dogs: Hair regrowth on wound area, Partial ([2]; Hair covers >50% of original wound area): 1
No. of dogs: Hair regrowth on wound area, Full ([2]; Hair covers >95% of original wound area): 12
No. of dogs: Scarring & skin thickening, Minor ([2]; Localised scar covering <10% of original wound area): 1
No. of dogs: Scarring & skin thickening, Substantial ([2]; Scarring covering >10% of original wound area): 1
No. of dogs: Scarring & skin thickening, Nil or minimal ([2]; Scarring not obvious visually or by touch): 13
No. of dogs: Change in hair colour, No ([2]; healed wound site): 15
No. of dogs: Change in hair colour, Yes ([2]; healed wound site): 0
No. of dogs: Skin pigmentation, Hyperpigmentation ([2]; healed wound site): 0
No. of dogs: Skin pigmentation, Hypopigmentation ([2]; healed wound site): 3
No. of dogs: Skin pigmentation, Normal ([2]; healed wound site): 11
No. of dogs: Skin pigmentation, Patchy ([2]; healed wound site): 1
levels of MMP9 (Western blot) ([3]; 6 or 24 hours): No difference
activation of MEK1/2 and ERK/2 (Western blot) ([3]; 6 hours): transient activation
activation of MEK1/2 and ERK/2 (Western blot) ([3]; 24 hours): down-regulation of activation
scratch repopulation and closure (migration study) (HaCaT cells): enhanced
